The structures appear in SMILES notation.

One data set deals with T1, SHP-1 (Mus musculus, UniProt P29351).
T1 construct: made in house
Briefly: In vitro PTPase assay, GST/SHP-1 fusion protein. It counts as biochemical. The method, then: In vitro PTPase activities were measured using the commercial protein tyrosine phosphatase assay kit (Upstate Biotechnology, Inc. (“UBI”)) following established procedure known to one of skill in the art. […] 100 μl of Malachite Green solution was added and incubated for 5 minutes, and the absorbance at 660 nm was measured after 5 minutes.
The beads were then either subjected to in vitro PTPase assays or washed 3 times in Tris buffer then subjected to in vitro PTPase assays.
Briefly, individual PTPases (0.1 μg/reaction) in 50 μL of PTPase buffer (50 mM Tris, pH 7.4) were incubated at 22° C. for 10 minutes or as indicated in the absence or presence of inhibitory compounds. […] […] […] Relative PTPase activities were calculated based on the formula: (PTPase activity in the presence of an inhibitory compound/PTPase activity in the absence of the compound)×100%. To assess the reversibility of PTPase inhibition, GST fusion proteins of the PTPases bound on glutathione beads (Pharmacia) were pre-incubated with cold Tris buffer (50 mM Tris, pH 7.0) or Tris buffer containing the inhibitor at 4° C. for 30 minutes. The beads were then washed three times in cold Tris buffer or not washed prior to subjecting to in vitro PTPase assays.

The next data set deals with T2, PRL-3 (Homo sapiens, UniProt O75365).
T2 construct: cDNAs of human PRL-1, PRL-2 and PRL-3 coding region were derived by RT-PCR from H9 cells; made in house; host or cells: DH5a bacteria (E. coli)
T2 sequence (O75365 whole entry): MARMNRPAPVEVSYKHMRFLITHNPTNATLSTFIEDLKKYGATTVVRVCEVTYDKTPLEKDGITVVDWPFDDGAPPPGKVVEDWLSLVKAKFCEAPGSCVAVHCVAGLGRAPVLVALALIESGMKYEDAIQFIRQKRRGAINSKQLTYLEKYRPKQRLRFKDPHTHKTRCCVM
The data set is described as follows: In vitro PTPase assay, recombinant PRL-3. It counts as biochemical. The note with it: DiFMUP, comparable conditions. The text has this:
Sodium stibogluconate, suramin, sodium orth ovanadate and GST fusion protein of SHP-1 have been described previously (Pathak et al., J. Imumol. 167, 3391 (2001)). Meglumine antimonate was obtained from Aventis. cDNAs of human PRL-1, PRL-2 and PRL-3 coding region were derived by RT-PCR from H9 cells (Safai, et al., Lancet 1, 1438 (1984)) and inserted in frame into the pGEX vector. cDNA of PRL-1R86 was generated by recombinant DNA technique using PRL-1 cDNA as template following established procedures (Jiao, et al., Mol. Cell. Biol. 16, 6985 (1996)). GST fusion proteins of the PRL phosphatases were prepared from DH5a bacteria transformed with the pGEX fusion protein constructs as described previously (Yi, et al., Mol. Cell. Biol. 12, 836 (1992)). cDNAs encoding the PRLs tagged at the N-termini with the Flag epitope (Castrucci, et al., J. Virol. 66, 4647 (1992)) were generated via recombinant DNA technique, sequenced to confirm their identities and cloned into the pBabepuro vector (Yang, et al., Blood 91, 3746 (1998)). Anti-Flag monoclonal antibody (M2, Sigma) was purchased from a commercial source. A synthetic phosphotyrosine peptide (Arg-Arg-Leu-Ile-Glu-Asp-Ala-Gle-Tyr-Ala-Ala-Arg-Gly (SEQ ID NO: 3), wherein the tyrosine is phosphorylated; UBI) and DiFMUP (6, 8-difluoro-4-methylumbelliferyl phosphate, Molecular Probes) were purchased as substrates for PTPase assays.
In vitro PTPase assays were used to determine the effects of compounds on recombinant PTPases, following established procedures using a synthetic phosphotyrosine peptide or DiFMUP as the substrate (Pathak et al., J. Imumol. 167, 3391 (2001)). Briefly, individual PTPases (0.1 μg/reaction) in 50 μL of PTPase buffer (50 mM Tris, pH 7.4) were incubated at 22° C. for 10 minutes or as indicated in the absence or presence of inhibitory compounds. Substrates (0.2 mM phosphotyrosine peptide) were then added and allowed to react at 22° C. for 18 hrs. PTPase activity of individual reactions was measured by adding 100 μL of malachite green solution (UBI) and then quantifying the amounts of free phosphate cleaved by the PTPase from the peptide substrate by spectrometry (OD660 nm). PTPase assays using DiFMUP as a substrate were conducted following a previously described procedure (Matter, et al., Biochem. Biophys. Res. Comm. 283, 1061 (2001)). Relative PTPase activities were calculated based on the formula: (PTPase activity in the presence of an inhibitory compound/PTPase activity in the absence of the compound)×100%. To assess the reversibility of PTPase inhibition, GST fusion proteins of the PTPases bound on glutathione beads (Pharmacia) were pre-incubated with cold Tris buffer (50 mM Tris, pH 7.0) or Tris buffer containing the inhibitor at 4° C. for 30 minutes. The beads were then washed three times in cold Tris buffer or not washed prior to subjecting to in vitro PTPase assays.

The next data set concerns GSTm8. Briefly: In vitro PTPase assay, GSTm8. The format is biochemical. The note with it: 3-4 μg/ml or 10-100 μg/ml.
The target in a further data set is T3, MKP1 (Homo sapiens, UniProt P28562).
T3 construct: a pGEX construct containing the coding region of MKP1 cDNA derived by RT-PCR; made in house; host or cells: DH5a bacteria (E. coli)
T3 sequence (P28562 1-367): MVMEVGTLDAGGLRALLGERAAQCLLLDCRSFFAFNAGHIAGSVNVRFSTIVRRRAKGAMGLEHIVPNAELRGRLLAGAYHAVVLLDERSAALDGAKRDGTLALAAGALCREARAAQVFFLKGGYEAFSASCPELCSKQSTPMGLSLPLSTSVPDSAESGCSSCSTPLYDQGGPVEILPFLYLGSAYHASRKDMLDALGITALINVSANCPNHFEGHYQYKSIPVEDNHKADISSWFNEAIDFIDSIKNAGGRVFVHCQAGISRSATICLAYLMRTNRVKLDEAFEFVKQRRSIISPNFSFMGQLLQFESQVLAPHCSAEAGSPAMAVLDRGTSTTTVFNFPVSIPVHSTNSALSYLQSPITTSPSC
The data set is described as follows: In vitro PTPase assay, GST/MKP1 fusion protein. It counts as biochemical.

Another data set has as its target T4, PTP1B (Homo sapiens, UniProt P18031).
T4 construct: purchased Upstate Biotechnology Inc. (Lake Placid, N.Y.)
Briefly: In vitro PTPase assay, GST/PTP1B fusion protein. It counts as biochemical. Particulars: 1-1,000 μg/ml. The method, then: In vitro PTPase activities were measured using the commercial protein tyrosine phosphatase assay kit (Upstate Biotechnology, Inc. (“UBI”)) following established procedure known to one of skill in the art. This assay measures the in vitro dephosphorylation of a synthetic phosphotyrosine peptide of the sequence Arg-Arg-Leu-Ile-Glu-Asp-Ala-Gle-Tyr-Ala-Ala-Arg-Gly, wherein the tyrosine is phosphorylated (SEQ ID NO: 3). Briefly, 0.01 μg of GST/PTPase fusion proteins was incubated in 50 μl of Tris buffer (10 mM Tris, pH 7.4) containing different concentrations of inhibitors or chemicals (0-1,000 μg/ml) at 22° C. for 10 minutes, followed by addition of 0.2 mM of the phosphotyrosine peptide and incubation at 22° C. for 18 hours. 100 μl of Malachite Green solution was added and incubated for 5 minutes, and the absorbance at 660 nm was measured after 5 minutes.

For the next data set, the system named is Baf3 cells. The data set is described as follows: Baf3 cell proliferation assay. The format is cell-based, murine. The method, then: The murine hematopoietic cell line Baf3 was maintained in RPMI 1640 medium supplemented with 10% fetal calf serum (FCS) and murine IL-3 (20 units/ml) as described previously in Damen et al., J. Biol. Chem. 270, 23402 (1995). Human myeloid cell line TF-1 was maintained in RPMI 1640 supplemented with 10% FCS and 40 ng/ml of recombinant human GM-CSF as described previously in Thomassen et al., Clin. Immunol. 95, 85 (2000). For cell proliferation assays, cells were washed in 10% FCS medium twice, resuspended in 10% FCS medium, incubated at 37° C. for 16 hours, and then cultured at 37° C. in 10% FCS medium containing various amounts of cytokines, sodium stibogluconate, or potassium antimonyl tartrate for 3-6 days as indicated. The cell numbers in proliferation assays were determined by an MTT assay or by microscopic cell counting as indicated.

A further data set relates to Jak2/Stat5. Briefly: IL-3-induced Jak2/Stat5 tyrosine phosphorylation in Baf3 cells. It counts as cell-based, murine. The method, then:
For induction of cellular protein phosphorylation by sodium stibogluconate or pervanadate, Baf3 cells were incubated in 0.1% FCS-RPMI 1640 medium at 37° C. for 16 hours. The cells were then washed twice in RPMI 1640 medium and incubated with sodium stibogluconate or pervanandate (0.1 mM) for various times prior to termination by lysing cells in cold lysis buffer (50 mM Tris, pH 7.4; 150 mM NaCl; 0.2 mM Na3VO4; 20 mm NaF; 1% Nonidet P-40; 2 mM PMSF; 20 μg/ml of Aprotinin and 1 mM of sodium molybdic acid). To determine the effect of sodium stibogluconate or potassium antimonyl tartrate on IL-3-induced Jak/Stat phosphorylation, Baf3 cells were deprived of the growth factor for 16 hours in 0.1% FCS RPMI 1640 medium and then incubated with or without sodium stibogluconate or potassium antimonyl tartrate for 10 minutes. IL-3 was next added to the cell suspension and incubated for various times. The Cells were then harvested and lysed in cold lysis buffer at 4° C. for 45 minutes. Total cell lysates (TCL) were separated in SDS-PAGE gels, blotted onto nitrocellulose membrane (Schleicher & Schuell), probed with specific antibodies and detected using an enhanced chemiluminescence kit (ECL, Amersham, Arlington Heights, Ill.).

T1 sequence (P29351 whole entry): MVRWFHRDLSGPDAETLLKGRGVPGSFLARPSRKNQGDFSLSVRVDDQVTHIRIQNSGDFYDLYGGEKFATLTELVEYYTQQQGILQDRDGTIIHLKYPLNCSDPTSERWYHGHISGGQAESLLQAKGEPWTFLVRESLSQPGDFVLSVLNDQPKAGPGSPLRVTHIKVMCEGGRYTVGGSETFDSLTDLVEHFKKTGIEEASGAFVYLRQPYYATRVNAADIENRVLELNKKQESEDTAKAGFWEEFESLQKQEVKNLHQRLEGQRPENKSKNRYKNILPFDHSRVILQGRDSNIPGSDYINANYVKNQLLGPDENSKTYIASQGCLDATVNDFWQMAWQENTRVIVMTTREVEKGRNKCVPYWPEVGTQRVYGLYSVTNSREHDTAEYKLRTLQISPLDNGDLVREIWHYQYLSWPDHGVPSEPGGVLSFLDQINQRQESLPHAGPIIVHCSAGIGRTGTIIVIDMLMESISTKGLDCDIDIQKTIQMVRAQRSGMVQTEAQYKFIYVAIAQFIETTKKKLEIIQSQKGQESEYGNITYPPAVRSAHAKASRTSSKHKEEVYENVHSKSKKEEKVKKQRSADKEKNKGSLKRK
T4 sequence (P18031 whole entry, species assumed): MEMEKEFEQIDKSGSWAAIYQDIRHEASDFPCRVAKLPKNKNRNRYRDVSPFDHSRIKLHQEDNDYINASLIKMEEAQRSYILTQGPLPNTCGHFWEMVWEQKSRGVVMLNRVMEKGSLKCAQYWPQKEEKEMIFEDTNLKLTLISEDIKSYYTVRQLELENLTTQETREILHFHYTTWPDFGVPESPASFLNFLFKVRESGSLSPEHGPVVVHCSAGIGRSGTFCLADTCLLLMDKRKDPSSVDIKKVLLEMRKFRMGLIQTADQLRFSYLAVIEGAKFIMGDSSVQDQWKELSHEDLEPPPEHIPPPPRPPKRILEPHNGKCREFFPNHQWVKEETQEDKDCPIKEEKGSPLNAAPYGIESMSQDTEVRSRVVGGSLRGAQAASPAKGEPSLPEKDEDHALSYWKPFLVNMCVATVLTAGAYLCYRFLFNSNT

Consider `Cc1ccc(C(=O)Nc2ccc(S(=O)(=O)O)c3cc(S(=O)(=O)O)cc(S(=O)(=O)O)c23)cc1NC(=O)c1cccc(NC(=O)Nc2cccc(C(=O)Nc3cc(C(=O)Nc4ccc(S(=O)(=O)O)c5cc(S(=O)(=O)O)cc(S(=O)(=O)O)c45)ccc3C)c2)c1` [Suramin], for which the “inhibition of SHP-1 compared with sodium stibogluconate” value at SHP-1 (comparable conditions) was “less effective”. In addition, the “reversibility of SHP-1 inhibition by washing” value at SHP-1 (pre-incubated at 4° C. 30 minutes, beads washed 3 times) is “almost completely removed by the washing process”. For the same compound, at PRL-3, the “inhibition of PRL-3 with DiFMUP substrate” value was “less effective”.

With `c1ccc([C@H]2CN3CCSC3=N2)cc1` [levamisole], the “inhibitory activity against GSTm8” value with GSTm8 was “no obvious inhibitory activity”. For the same compound, the “inhibitory activity against SHP-1” value at SHP-1 (3-4 μg/ml or 10-100 μg/ml) is recorded as “no obvious inhibitory activity”. In addition, the “inhibition of MKP1” value on MKP1 is “substantial inhibition”.

With `O.O.O.O=C([O-])[C@H]([O-])[C@@H]([O-])C(=O)[O-].O=C([O-])[C@H]([O-])[C@@H]([O-])C(=O)[O-].[K+].[K+].[Sb+3].[Sb+3]` [potassium antimonyl tartrate], the “inhibition of PTP1B” value against PTP1B was “no detectable inhibition”. Further, the “toxicity against Baf3 cells” value with Baf3 cells is “marked toxicity”. Also, in the data set on Baf3 cells (IL-3 10 units/ml, three days), the “IL-3-induced proliferation of Baf3 cells” value is recorded as “failed to enhance”. On SHP-1 (1-1,000 μg/ml), the “inhibition of SHP-1” value is “no detectable inhibition”. In addition, in the data set on Jak2/Stat5, the “IL-3-induced Stat5 phosphorylation” value is “failed to enhance”.

With `[Na+].[Na+].[Na+].[O]=[V]([O-])([O-])[O-]` [sodium orthovanadate], the “inhibition of PRL-3 with DiFMUP substrate” value at PRL-3 was “less effective”.
